Measured values published in patent publication US7256206B2, “Bicyclic compounds and compositions” (IRM LLC, priority 2003, dated 2007).

Columns and labels:
[1] = target: T1, human EDG-1 (Homo sapiens, UniProt P21453); assay: EDG-1 (S1P1) GTP [γ-35S] binding assay (SPA); type: biochemical; settings: for EC50: GTP [γ-35S] binding, CHO membranes
T1 construct: c-myc (N); expressed in transfected cells; membrane protein suspensions
Procedure: (§1) A. In vitro: a Scintillation Proximity Assay (SPA) for Measuring GTP [γ-^35S] Binding to Membranes Prepared from CHO Cells Expressing Human EDG/S1P Receptors
EDG-1 (S1P1) GTP [γ-^35S] binding assay: Membrane protein suspensions are prepared from CHO cell clones stably expressing a human EDG-1 N-terminal c-myc tag. Solutions of test compounds ranging from 10 mM to 0.01 mM are prepared in DMSO/50 mM HCl and then diluted into assay buffer (20 mM HEPES, pH7.4, 100 mM NaCl, 10 mM MgCl2, 0.1% fat free BSA). Assay buffer containing […] is mixed with wheat germ agglutinin-coated SPA-beads (1 mg/well) followed by the addition of human EDG-1 membrane protein suspension (10 μg/well) and test compound. The bead/membrane/compound assay components are then mixed for 10–15 minutes on a shaker at room temperature. GTP [γ-^35S] (200 pM) and bead/membrane/compound assay mixture are added to individual wells of a 96 well Optiplate™ (final volume 225 μl/well), sealed and incubated at room temperature for 110 to 120 minutes under constant shaking. After centrifugation (2000 rpm, 10 minutes) luminescence is measured with a TopCount™ instrument.
(§2) EC50 values are obtained by fitting the GTP [γ-^35S] binding curves (raw data) with the dose response curve-fitting tool of ORIGIN V. 6.1. Basal binding (no compound) and the highest stimulation of GTP [γ-^35S] binding achieved by an agonist are used as the fitting range. Seven different concentrations are used to generate a concentration response curve (using two or three data points per concentration).

[2] = target: T2, EDG-3 (Homo sapiens, UniProt Q99500); assay: EDG-3 GTP [γ-35S] binding assay; type: biochemical; settings: CHO membranes
T2 construct: c-myc (print says 'tagged or untagged'; not resolved for this receptor) (C); expressed in transfected cells; membranes
Source text: as §1, §2
(§3) Concentrations of EDG receptor expressing membranes range between 13–19 μg per well.

[3] = target: T3, EDG-5 (Homo sapiens, UniProt O95136); assay: EDG-5 GTP [γ-35S] binding assay; type: biochemical; settings: CHO membranes
T3 construct: c-myc (print says 'tagged or untagged'; not resolved for this receptor) (C); expressed in transfected cells; membranes
Source text: as §1, §2, §3

[4] = target: T4, EDG-6 (Homo sapiens, UniProt O95977); assay: EDG-6 GTP [γ-35S] binding assay; type: biochemical; settings: CHO membranes
T4 construct: c-myc (print says 'tagged or untagged'; not resolved for this receptor) (C); expressed in transfected cells; membranes
T4 sequence (O95977 1-384): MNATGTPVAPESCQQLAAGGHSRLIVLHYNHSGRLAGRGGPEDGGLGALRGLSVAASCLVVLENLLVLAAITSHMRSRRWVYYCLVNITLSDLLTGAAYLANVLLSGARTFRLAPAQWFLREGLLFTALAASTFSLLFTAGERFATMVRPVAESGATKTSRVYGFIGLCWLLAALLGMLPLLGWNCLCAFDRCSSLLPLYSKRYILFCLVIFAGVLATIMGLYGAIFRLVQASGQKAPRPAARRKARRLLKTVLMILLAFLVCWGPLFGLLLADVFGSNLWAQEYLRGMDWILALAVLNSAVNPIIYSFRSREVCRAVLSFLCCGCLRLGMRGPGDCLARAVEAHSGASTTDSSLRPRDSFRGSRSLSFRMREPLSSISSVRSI
Source text: as §1, §2, §3

[5] = target: T5, EDG-8 (Homo sapiens, UniProt Q9H228); assay: EDG-8 GTP [γ-35S] binding assay (RH7777 membranes); type: biochemical
T5 construct: c-myc (print says 'tagged or untagged'; not resolved for this receptor) (C); expressed in transfected cells; membranes

[6] = tested on: circulating lymphocytes; assay: Measurement of blood lymphocyte depletion; type: in vivo, Mice (C57bl/6 male); settings: mice, blood collected 18 hours after administration, dose for 50% blood lymphocyte depletion; for ED50: Mus musculus, Lymphocyte, ip, 18 h
Procedure: (§4) C. In Vivo: Screening Assays for Measurement of Blood Lymphocyte Depletion and Assessment of Heart Effect
Measurement of circulating lymphocytes: Compounds are dissolved in DMSO and further diluted with deionized water. Mice (C57bl/6 male, 6–10 week-old) are administered 20 μg of compound (diluted in 200 μl water, 4% DMSO) via intra-peritoneal (IP) injection under short isoflurane anesthesia. Water (200 μl), 4% DMSO, and FTY720 (10 μg) are included as negative and positive controls, respectively.
Blood is collected from the retro-orbital sinus 18 hours after drug administration under short isoflurane anesthesia. Whole blood samples are subjected to hematology analysis. Peripheral lymphocyte counts are determined using an automated analyzer. Subpopulations of peripheral blood lymphocytes are stained by fluorochrome-conjugated specific antibodies and analyzed using a fluorescent activating cell sorter (Facscalibur). Two mice are used to assess the lymphocyte depletion activity of each compound screened. The result is an ED50, which is defined as the effective dose required displaying 50% of blood lymphocyte depletion.

[7] = Assessment of heart effect (AnonyMOUSE ECG screening); type: in vivo, mice (C57bl/6 male); settings: ECG before and after compound, 90 μg IP
Procedure: as §4
Assessment of Heart Effect: The effects of compounds on cardiac function are monitored using the AnonyMOUSE ECG screening system. Electrocardiograms are recorded in conscious mice (C57bl/6 male, 6–10 week-old) before and after compound administration. ECG signals are then processed and analyzed using the e-MOUSE software. 90 μg of compound further diluted in 200 μl water, 15% DMSO are injected IP. Four mice are used to assess the heart effect of each compound.

T5 sequence (Q9H228 whole entry): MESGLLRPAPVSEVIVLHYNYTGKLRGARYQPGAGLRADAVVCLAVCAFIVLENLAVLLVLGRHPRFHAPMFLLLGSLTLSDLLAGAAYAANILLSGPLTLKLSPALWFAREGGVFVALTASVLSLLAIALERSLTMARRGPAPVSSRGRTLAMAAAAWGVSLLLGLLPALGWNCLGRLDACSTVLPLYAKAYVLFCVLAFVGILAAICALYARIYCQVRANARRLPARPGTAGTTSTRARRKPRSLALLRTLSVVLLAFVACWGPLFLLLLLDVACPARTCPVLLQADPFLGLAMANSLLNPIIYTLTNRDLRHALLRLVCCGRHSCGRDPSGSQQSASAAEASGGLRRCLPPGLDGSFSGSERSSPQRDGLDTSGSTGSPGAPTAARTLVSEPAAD
T1 sequence (P21453 whole entry): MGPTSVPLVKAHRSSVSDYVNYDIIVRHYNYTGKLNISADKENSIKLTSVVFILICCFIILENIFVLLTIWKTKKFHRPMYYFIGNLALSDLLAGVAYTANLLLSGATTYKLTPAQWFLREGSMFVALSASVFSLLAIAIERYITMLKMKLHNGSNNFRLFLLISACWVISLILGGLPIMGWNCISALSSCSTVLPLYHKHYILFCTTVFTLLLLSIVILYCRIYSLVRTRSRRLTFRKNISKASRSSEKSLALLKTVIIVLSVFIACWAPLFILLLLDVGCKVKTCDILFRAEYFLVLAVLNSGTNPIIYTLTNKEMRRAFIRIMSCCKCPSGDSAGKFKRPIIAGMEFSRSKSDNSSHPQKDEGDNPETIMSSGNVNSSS
T2 sequence (Q99500 whole entry): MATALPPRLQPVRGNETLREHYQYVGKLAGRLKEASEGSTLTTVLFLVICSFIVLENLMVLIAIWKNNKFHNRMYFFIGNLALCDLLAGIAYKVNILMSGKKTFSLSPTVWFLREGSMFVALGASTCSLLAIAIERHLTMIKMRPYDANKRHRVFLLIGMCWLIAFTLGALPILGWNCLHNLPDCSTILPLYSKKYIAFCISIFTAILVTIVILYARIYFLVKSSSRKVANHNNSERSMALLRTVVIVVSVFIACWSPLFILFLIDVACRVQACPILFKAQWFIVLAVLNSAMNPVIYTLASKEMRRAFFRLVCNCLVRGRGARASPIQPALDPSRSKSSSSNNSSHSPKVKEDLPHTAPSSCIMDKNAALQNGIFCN
T3 sequence (O95136 whole entry): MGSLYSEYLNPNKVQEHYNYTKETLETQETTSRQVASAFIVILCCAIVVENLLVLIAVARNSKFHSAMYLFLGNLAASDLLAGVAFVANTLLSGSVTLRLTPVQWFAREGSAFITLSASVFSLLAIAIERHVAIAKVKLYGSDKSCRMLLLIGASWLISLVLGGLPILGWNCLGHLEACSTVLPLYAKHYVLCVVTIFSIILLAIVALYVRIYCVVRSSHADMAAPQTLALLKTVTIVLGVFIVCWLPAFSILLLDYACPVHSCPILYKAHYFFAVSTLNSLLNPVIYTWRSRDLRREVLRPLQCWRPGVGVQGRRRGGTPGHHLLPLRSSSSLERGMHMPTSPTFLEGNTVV

Row | Structure (SMILES) | EC50 [1] [µM] | EC50 [2] [µM] | EC50 [3] [µM] | EC50 [4] [µM] | EC50 [5] [µM] | ED50 [6] [mg/kg] | Lymphocyte Depletion ED50 ([6]; IP) | Heart effect in conscious mice [7] | selectivity for EDG-1 compared to EDG-3, EDG-5, EDG-6 and EDG-8 ([1]; GTP [γ-35S] binding assays)
1 | C/C(=N\OCc1ccc(-c2ccsc2)cc1)c1ccc(CCC(N)(CO)COP(=O)(O)O)cc1 (stereo not drawn) [Compound 9] | 0.00079 | > 10 | > 10 | 4.4 | > 10 | 0.08 | ED50 ~0.08 mg/kg | clean | –
2 | C/C(=N\OCc1ccc(-c2ccccc2)cc1)c1ccc(CCC(N)(CO)COP(=O)(O)O)cc1 (stereo not drawn) | 0.00086 | > 10 | > 10 | 0.168 | > 10 | ~0.1 | – | clean | –
3 | C/C(=N\OCc1ccc(-c2cccc(C(F)(F)F)c2)cc1)c1ccc(CCC(N)(CO)COP(=O)(O)O)cc1 (stereo not drawn) | 0.0157 | 0.0035 | > 10 | 1.24 | 0.0058 | < 1 | – | clean | –
4 | C/C(=N\OCc1ccc(-c2cccs2)cc1)c1ccc(CCC(N)(CO)COP(=O)(O)O)cc1 (stereo not drawn) [Compound 10, phosphoric acid mono-(2-amino-2-hydroxymethyl-4-{4-[1-(4-thiophen-2-yl-benzyloxy-imino)-ethyl]-phenyl}-butyl)ester] | 0.00115 | > 10 | > 10 | > 10 | > 10 | ~0.2 | – | clean | at least 1000 fold
